Measurements as given in patent US9701670B2, “Pyrazolyl-ureas as kinase inhibitors” (RESPIVERT LIMITED, priority 2013, dated 2017).

Columns and labels:
[1] = tested on: Differentiated U937 cells; experiment: (l) Cell viability: MTT assay; assay type: cell-based, human; conditions: 1 μg/mL
Method: Differentiated U937 cells are pre-incubated with each test compound (final concentration 1 μg/mL or 10 μg/mL in 200 μL media indicated below) under two protocols: the first for 4 hr in 5% FCS RPMI1640 media and the second in 10% FCS RPMI1640 media for 24 h. The supernatant is replaced with new media (200 μL) and MTT stock solution (10 μL, 5 mg/mL) is added to each well. After incubation for 1 hr the media are removed, DMSO (200 μL) is added to each well and the plates are shaken lightly for 1 hr prior to reading the absorbance at 550 nm. The percentage loss of cell viability is calculated for each well relative to vehicle (0.5% DMSO) treatment. Consequently an apparent increase in cell viability for drug treatment relative to vehicle is tabulated as a negative percentage.

[2] = molecular target: p38 MAPKα isoform (MAPK14) (Homo sapiens (Human), UniProt Q16539); experiment: p38 MAPKα enzyme inhibition (FRET, Z-LYTE), Method 1; assay type: biochemical; conditions: Method 1 (Table 4a1)
p38 MAPKα isoform (MAPK14), sequence (Q16539 whole entry, canonical isoform): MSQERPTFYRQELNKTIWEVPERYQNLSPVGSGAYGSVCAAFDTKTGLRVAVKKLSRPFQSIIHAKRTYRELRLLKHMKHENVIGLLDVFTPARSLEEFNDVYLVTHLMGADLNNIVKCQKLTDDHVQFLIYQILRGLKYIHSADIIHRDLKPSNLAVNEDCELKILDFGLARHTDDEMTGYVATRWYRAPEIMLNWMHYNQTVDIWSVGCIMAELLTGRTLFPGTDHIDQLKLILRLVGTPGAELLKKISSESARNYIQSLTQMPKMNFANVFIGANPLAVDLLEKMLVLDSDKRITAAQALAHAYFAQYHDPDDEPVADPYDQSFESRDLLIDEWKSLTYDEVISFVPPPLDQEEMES
Method: The enzyme inhibitory activities of compounds disclosed herein are determined by FRET using synthetic peptides labelled with both donor and acceptor fluorophores (Z-LYTE, Invitrogen Ltd., Paisley, UK).
The inhibitory activities of test compounds against the p38 MAPKα isoform (MAPK14: Invitrogen), are evaluated indirectly by determining the level of activation/phosphorylation of the down-stream molecule, MAPKAP-K2. The p38 MAPKα protein (80 ng/mL, 2.5 μL) is mixed with the test compound (2.5 μL of either 4 μg/mL, 0.4 μg/mL, 0.04 μg/mL or 0.004 μg/mL) for 2 hr at RT. […] The mixture is incubated for 1 hr at RT. Development reagent (protease, 5 μL) is added for 1 hr prior to detection in a fluorescence microplate reader (Varioskan® Flash, ThermoFisher Scientific).
In all cases, the site-specific protease cleaves non-phosphorylated peptide only and eliminates the FRET signal. Phosphorylation levels of each reaction are calculated using the ratio of coumarin emission (donor) over fluorescein emission (acceptor), for which high ratios indicate high phosphorylation and low ratios indicate low phosphorylation levels.

| Structure (SMILES) | Cell viability at time point in d-U937 cells 4 h [1] | Cell viability at time point in d-U937 cells 24 h [1] | IC50 [2] [nM] |
| --- | --- | --- | --- |
| COCCNC(=O)c1cc(Nc2nccc(Oc3ccc(NC(=O)Nc4cc(C(C)(C)C)nn4-c4ccc(C)cc4)c4ccccc34)n2)cc(OC)c1 [Example 67, 3-((4-((4-(3-(3-(tert-butyl)-1-(p-tolyl)-1H-pyrazol-5-yl)ureido)naphthalen-1-yl)oxy)pyrimidin-2-yl)amino)-5-methoxy-N-(2-methoxyethyl)benzamide] | −ve (−ve and +ve indicate that the value is below and above respectively, the no significant effect threshold, defined as 30% inhibition at 1 μg/mL at the time point indicated.) | −ve (−ve and +ve indicate that the value is below and above respectively, the no significant effect threshold, defined as 30% inhibition at 1 μg/mL at the time point indicated.) | 24 |
| Cc1ccc(-n2nc(C(C)(C)C)cc2NC(=O)Nc2ccc(Oc3ccnc(Nc4cc(Br)cc(C(=O)NCCN5CCOCC5)c4)n3)c3ccccc23)cc1 [Example 62, 3-bromo-5-((4-((4-(3-(3-(tert-butyl)-1-(p-tolyl)-1H-pyrazol-5-yl)ureido)naphthalen-1-yl)oxy)pyrimidin-2-yl)amino)-N-(2-morpholinoethyl)benzamide] | −ve (−ve and +ve indicate that the value is below and above respectively, the no significant effect threshold, defined as 30% inhibition at 1 μg/mL at the time point indicated.) | +ve (−ve and +ve indicate that the value is below and above respectively, the no significant effect threshold, defined as 30% inhibition at 1 μg/mL at the time point indicated.) | 22 |
| COc1cc(C(=O)NCCN(C)C)ccc1Nc1nccc(Oc2ccc(NC(=O)Nc3cc(C(C)C)nn3-c3ccc(C)cc3)c3ccccc23)n1 [Example 35, N-(2-(dimethylamino)ethyl)-4-((4-((4-(3-(3-isopropyl-1-(p-tolyl)-1H-pyrazol-5-yl)ureido)naphthalen-1-yl)oxy)pyrimidin-2-yl)amino)-3-methoxybenzamide] | −ve (−ve and +ve indicate that the value is below and above respectively, the no significant effect threshold, defined as 30% inhibition at 1 μg/mL at the time point indicated.) | −ve (−ve and +ve indicate that the value is below and above respectively, the no significant effect threshold, defined as 30% inhibition at 1 μg/mL at the time point indicated.) | < 1 |
| COc1ccc(-n2nc(C(C)C)cc2NC(=O)Nc2ccc(Oc3ccnc(Nc4cccc(C(=O)NCCN5CCOCC5)c4)n3)c3ccccc23)cc1 [Example 20, 3-((4-((4-(3-(3-isopropyl-1-(4-methoxyphenyl)-1H-pyrazol-5-yl)ureido)naphthalen-1-yl)oxy)pyrimidin-2-yl)amino)-N-(2-morpholinoethyl)benzamide] | −ve (−ve and +ve indicate that the value is below and above respectively, the no significant effect threshold, defined as 30% inhibition at 1 μg/mL at the time point indicated.) | −ve (−ve and +ve indicate that the value is below and above respectively, the no significant effect threshold, defined as 30% inhibition at 1 μg/mL at the time point indicated.) | 5 |
| COc1ccc(-n2nc(C(C)C)cc2NC(=O)Nc2ccc(Oc3ccnc(Nc4cc(C(=O)NCCN5CCOCC5)cc(C(F)(F)F)c4)n3)c3ccccc23)cc1 [Example 47] | −ve (−ve and +ve indicate that the value is below and above respectively, the no significant effect threshold, defined as 30% inhibition at 1 μg/mL at the time point indicated.) | −ve (−ve and +ve indicate that the value is below and above respectively, the no significant effect threshold, defined as 30% inhibition at 1 μg/mL at the time point indicated.) | 10 |
